# Target: T1, FLuc-C-HiBiT (Photinus pyralis, UniProt P08659)
# T1 construct: firefly luciferase with C-terminal HiBiT tag, E. coli expressed
# Assay: biochemical
# Conditions: enzyme activity, 10 uM ATP; read-out: IC50 or SDR50 (mM) / FLuc E
# T1 sequence (P08659 whole entry, looked up): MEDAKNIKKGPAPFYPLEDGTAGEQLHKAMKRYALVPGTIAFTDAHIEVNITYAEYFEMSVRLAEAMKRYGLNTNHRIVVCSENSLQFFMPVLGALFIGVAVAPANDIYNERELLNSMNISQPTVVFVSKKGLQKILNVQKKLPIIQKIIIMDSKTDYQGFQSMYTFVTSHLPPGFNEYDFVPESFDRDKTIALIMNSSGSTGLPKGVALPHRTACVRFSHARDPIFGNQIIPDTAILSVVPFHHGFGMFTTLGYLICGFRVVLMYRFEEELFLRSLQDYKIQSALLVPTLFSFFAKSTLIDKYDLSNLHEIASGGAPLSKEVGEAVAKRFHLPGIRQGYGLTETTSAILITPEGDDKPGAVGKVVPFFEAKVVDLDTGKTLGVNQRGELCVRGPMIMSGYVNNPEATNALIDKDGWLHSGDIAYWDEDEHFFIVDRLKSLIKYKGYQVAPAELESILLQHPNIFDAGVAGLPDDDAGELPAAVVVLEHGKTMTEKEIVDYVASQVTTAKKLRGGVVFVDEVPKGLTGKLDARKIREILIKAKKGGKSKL
row,Compound,IC50 [µM]
1,COc1ccc(OCC(=O)Nc2cccc(-c3nc4ccccc4s3)c2C)cc1 [NCGC00118972-01],7.85
2,O=C(COc1ccccc1F)Nc1ccc(-c2nc3ccccc3s2)cc1 [NCGC00118994-02],> 30
3,O=C(COc1ccccc1[N+](=O)[O-])Nc1ccc(-c2nc3ccccc3s2)cc1 [NCGC00119127-01],> 30
4,COc1ccccc1OC(C)C(=O)Nc1ccc(-c2nc3ccccc3s2)cc1 (stereo not shown) [NCGC00119131-01],> 30
5,CC(Oc1ccccc1F)C(=O)Nc1ccc(-c2nc3ccccc3s2)cc1 (stereo not shown) [NCGC00119149-01],8.81
6,O=C(COc1ccccc1[N+](=O)[O-])Nc1cccc(-c2nc3ccccc3s2)c1 [NCGC00119155-01],> 30
7,COc1ccccc1OC(C)C(=O)Nc1cccc(-c2nc3ccccc3s2)c1 (stereo not shown) [NCGC00119157-01],8.81
8,CCOc1ccccc1C(=O)Nc1nc2c(s1)CC(C)CC2 (stereo not shown) [NCGC00119172-01],4.42
9,COc1ccccc1-c1noc(-c2ccc(N3CCN(C)CC3)c([N+](=O)[O-])c2)n1 [NCGC00119222-01],4.95
10,CC(C)(C)C1CCc2nc(NC(=O)c3cccc(Cl)c3)sc2C1 (stereo not shown) [NCGC00119231-01],2.48
11,COc1ccc(-c2noc(-c3ccc(N4CCN(C)CC4)c([N+](=O)[O-])c3)n2)cc1 [NCGC00119282-01],15.7
12,Cc1ccccc1-c1noc(-c2ccc(N3CCCC3)c([N+](=O)[O-])c2)n1 [NCGC00119417-01],11.1
13,O=C(COc1ccccc1)Nc1nnc([S+](=O)([O-])Nc2ccccc2)s1 [NCGC00120845-01],14
14,Cc1cccc(CCNC(=O)c2sc3nc4n(c(=O)c3c2C)CCCC4)c1 [NCGC00121158-01],> 30
15,Cc1nnc(SCc2ccccc2)c2cc3sccc3n12 [NCGC00122277-01],14
16,CCOc1cccc2cc(-c3nc(-c4ccccc4C)no3)c(=O)oc12 [NCGC00123322-01],3.13
17,O=c1oc2ccc(F)cc2cc1-c1nc(-c2cccs2)no1 [NCGC00123380-01],3.13
18,Cc1ccc2oc(=O)c(-c3nc(-c4cccs4)no3)cc2c1 [NCGC00123382-01],> 30
19,COc1ccc(-c2cn3nc(N4CCCC(C(=O)NCc5ccccc5OC)C4)sc3n2)cc1 (stereo not shown) [NCGC00123654-01],11.1
20,O=C(NCc1cccc(Cl)c1)C1CCCN(c2nn3cc(-c4ccc(F)cc4)nc3s2)C1 (stereo not shown) [NCGC00123714-01],8.81
21,CCc1ccc(CNC(=O)C2CCCN(c3nn4cc(-c5ccc(F)cc5)nc4s3)C2)cc1 (stereo not shown) [NCGC00123722-01],> 30
22,Cc1ccc(CSc2nc3cccnc3n2Cc2ccc(C(=O)NC3CC3)cc2)cc1 [NCGC00123844-01],0.394
23,COc1ccc(NC(=O)Cn2c(SCc3ccc(C)cc3)nc3cccnc32)cc1OC [NCGC00123978-01],0.7

row,Compound,IC50 [µM]
1,COc1cc(OC)c(NC(=O)Cn2c(SCc3ccccc3F)nc3cccnc32)cc1Cl [NCGC00124034-02],> 30
2,Cc1ccc(Nc2ncnc3c2nc2n3CCCC2)c(Br)c1 [NCGC00124653-01],4.95
3,CC1CCCN(C(=O)c2cc3ccc4cccnc4c3[nH]2)C1 (stereo not shown) [NCGC00126906-01],0.556
4,O=C(c1cc2ccc3cccnc3c2[nH]1)N1CCCCC1 [NCGC00126930-01],1.57
5,COc1cccc(-n2nnc(-c3nc(-c4ccccc4F)no3)c2C)c1 [NCGC00128608-01],5.56
6,Cc1c(Cl)cccc1-n1nnc(-c2nc(-c3ccc4c(c3)OCO4)no2)c1C [NCGC00128638-01],11.1
7,Cc1cn2c(=O)cc(COC(=O)c3ccccc3F)nc2s1 [NCGC00129878-01],6.24
8,COc1ccccc1NC(=O)CN1C(=O)CC(c2ccc(C)c(C)c2)=Nc2ccccc21 [NCGC00130405-01],12.4
9,Cc1ccc(OCC(=O)Nc2cccc(C(=O)OCc3cc(=O)n4nc(C)sc4n3)c2)cc1 [NCGC00130504-01],7
10,COc1cccc(CN2CCc3nc(Nc4ccc5c(c4)OCCO5)ncc3C2)c1 [NCGC00131180-01],11.1
11,COC(=O)C1CCN(c2csc3ccc(C)cc3c2=O)CC1 [NCGC00132290-01],7.85
12,CCN1CCN(c2csc3ccc(Cl)cc3c2=O)CC1 [NCGC00132328-01],12.4
13,CC1CCCCN1c1csc2ccc(F)cc2c1=O (stereo not shown) [NCGC00132384-01],8.81
14,CC1CCc2nc3ncn(Cc4ccc(Cl)cc4)c(=O)c3cc2C1 (stereo not shown) [NCGC00132725-01],> 30
15,O=C(NCCc1ccccc1)c1ccc2c(c1)nc1n2CCOC1 [NCGC00133386-01],8.81
16,CC(C)CCNC(=O)c1ccc2c(c1)nc1n2CCCCC1 [NCGC00133608-01],9.89
17,Cc1ccc(C)c(N2CCN(C(=O)C3CCN(c4nc(-c5ccc(C(C)C)cc5)no4)CC3)CC2)c1 [NCGC00134060-01],11.1
18,O=C(Nc1nc2c(F)cc(F)cc2s1)c1ccc2c(c1)OCCO2 [NCGC00134168-01],1.76
19,O=c1oc2c(CN3CCCC3)c(O)ccc2cc1-c1ccccc1 [NCGC00134332-01],> 30
20,COc1ccc(-c2cn3nc(SCC(=O)Nc4cc(C)cc(C)c4)ccc3n2)cc1 [NCGC00134460-01],5.56
21,COc1ccc(-c2cn3nc(SCC(=O)Nc4ccccc4F)ccc3n2)cc1 [NCGC00134464-01],1.57
22,CCCCN(C)[S+](=O)([O-])c1ccc(C(=O)Nc2ccc(-c3nc4ccc(C)cc4s3)cc2)cc1 [NCGC00134689-02],> 30

# Other lines, results leading:
row,IC50 [µM],Compound
1,0.442,Cc1cccc(NC(=O)c2cc(-c3ccc4c(c3)OCCO4)on2)c1 [NCGC00118828-01]
2,0.624,O=C(Nc1cccc(Cl)c1)c1cc(-c2ccc3c(c2)OCCO3)on1 [NCGC00118845-01]
3,0.624,CC(=O)Nc1ccc(NC(=O)c2cc(-c3ccc4c(c3)OCCO4)on2)cc1 [NCGC00118853-01]
4,0.989,O=C(Nc1cccc(Br)c1)c1cc(-c2ccc3c(c2)OCCO3)on1 [NCGC00118911-01]
5,1.76,Cc1ccc(Cl)cc1NC(=O)c1cc(-c2ccc3c(c2)OCCO3)on1 [NCGC00118917-01]
6,5.56,Cc1c(NC(=O)C(C)(C)C)cccc1-c1nc2ccccc2s1 [NCGC00118970-01]
7,9.89,Cc1c(N[S+](C)(=O)[O-])cccc1-c1nc2ccccc2s1 [NCGC00118990-01]
8,0.0197,CC(C)(C)C(=O)Nc1ccc(-c2nc3ccccc3s2)cc1 [NCGC00118992-01]
9,2.21,C[S+](=O)([O-])Nc1ccc(-c2nc3ccccc3s2)cc1 [NCGC00118996-01]
10,> 30,Cc1ccc(C(=O)Nc2ccc3oc(-c4ccccc4C)nc3c2)cc1 [NCGC00118998-01]
11,5.56,COc1ccc(-c2nc3ccc(N[S+](C)(=O)[O-])cc3o2)cc1 [NCGC00119094-01]
12,> 30,CC(C)Oc1ccc(C(=O)Nc2ccc(-c3nc4ccccc4s3)cc2)cc1 [NCGC00119129-01]
13,> 30,Cc1cc(C)cc(OCC(=O)Nc2ccc(-c3nc4ccccc4s3)cc2)c1 [NCGC00119151-01]
14,9.89,Cc1ccc(OCC(=O)Nc2cccc(-c3nc4ccccc4s3)c2)cc1 [NCGC00119153-02]
15,11.1,CCCCC(=O)Nc1cccc(-c2nc3ccccc3s2)c1 [NCGC00119159-01]
16,11.1,CCOc1ccccc1C(=O)Nc1cccc(-c2nc3ccccc3s2)c1 [NCGC00119161-01]
17,15.7,CCC(CC)C(=O)Nc1cccc(-c2nc3ccccc3s2)c1 [NCGC00119163-01]
18,> 30,Cc1c(C(=O)Nc2cccc(-c3nc4ccccc4s3)c2)oc2ccccc12 [NCGC00119181-01]
19,> 30,Cc1c(C(=O)Nc2cccc(-c3nc4ccccc4s3)c2)oc2ccc(F)cc12 [NCGC00119183-01]
20,9.89,Cc1ccc2oc(C(=O)Nc3cccc(-c4nc5ccccc5s4)c3)c(C)c2c1 [NCGC00119185-01]

row,IC50 [µM],Compound
1,9.89,Cc1ccc(NC(=O)c2oc3ccc4c(c3c2C)C(=O)CC(C)(C)O4)c(C)c1 [NCGC00122260-01]
2,0.624,Cc1ccc(CSc2nc3cccnc3n2Cc2ccc(C(=O)NCc3ccco3)cc2)cc1 [NCGC00123842-01]
3,2.79,CCc1cccc(NC(=O)c2cc(-c3ccccc3)n[nH]2)c1 [NCGC00125661-01]
4,1.76,CCc1ccc(NC(=O)c2cc3ccccn3n2)cc1 [NCGC00127901-01]
5,> 30,CCc1cccc(-n2nnc(-c3nsc(NC(=O)c4cccs4)n3)c2C)c1 [NCGC00129048-01]
6,7,Cc1cn2c(=O)cc(COC(=O)c3cccc(NC(=O)COc4ccccc4Cl)c3)nc2s1 [NCGC00130619-01]
7,6.24,Cc1ccc(NC(=O)c2ncoc2-c2ccco2)cc1Cl [NCGC00131543-01]
8,0.881,Cc1ccccc1CCNC(=O)c1ccc2c(c1)nc1n2CCCCC1 [NCGC00133334-01]
9,1.11,O=C(NCCc1ccccc1Cl)c1ccc2c(c1)nc1n2CCCCC1 [NCGC00133356-01]
10,4.95,Cc1ccccc1CCNC(=O)c1ccc2c(c1)nc1n2CCOC1 [NCGC00133426-01]
11,7,O=C(NCCc1ccccc1Cl)c1ccc2c(c1)nc1n2CCOC1 [NCGC00133432-01]
12,12.4,CCN(CC)[S+](=O)([O-])c1ccc2nc(NC(=O)c3cccnc3)sc2c1 [NCGC00134045-01]
13,14,Cc1ccc(NC(=O)C2CCN(c3nc(-c4ccc(C(C)C)cc4)no3)CC2)c(Cl)c1 [NCGC00134062-01]
14,> 30,Cc1ccc2nc(-c3ccc(NC(=O)c4ccc([S+](C)(=O)[O-])cc4)cc3)sc2c1 [NCGC00134160-01]
15,> 30,CCSc1ccccc1C(=O)Nc1ccc(-c2nc3ccccc3s2)c(O)c1 [NCGC00134162-01]
16,> 30,CC[S+](=O)([O-])c1ccccc1C(=O)Nc1ccc(-c2nc3ccccc3s2)cc1 [NCGC00134164-01]
17,4.42,CC[S+](=O)([O-])c1cccc(C(=O)Nc2ccc(-c3nc4ccccc4s3)c(O)c2)c1 [NCGC00134166-03]
18,9.89,Cc1ccc(C)c(N2CCN(C(=O)c3ccc(NC(=O)c4nsc5ccccc45)cc3)CC2)c1 [NCGC00134456-01]
19,> 30,Cc1ccc(C(=O)Nc2ccc(-c3nc4ccccc4s3)c(O)c2)c(C)c1 [NCGC00134691-01]
20,> 30,COc1cccc(C(=O)Nc2ccc(-c3nc4ccc(C)cc4s3)cc2)c1OC [NCGC00134693-01]
